{"source": "paper PMC13224100", "about": "“Esterase-Responsive Mitochondria-Targeted Hydropersulfide Donors Mitigate Doxorubicin Cardiotoxicity While Preserving Anticancer Activity” (Angewandte Chemie (International ed. in English), 2025)", "type_in_all_cases": "cell-based", "key": {"MCF-7 cells": {"system": "MCF-7 cells", "assay": "Effect of RSSH donors on anticancer activity of DOX, CCK-8", "details": "4 h pretreatment, then 24 h co-treatment with DOX 15 μM", "protocol": "(§1) We next evaluated the effects of RSSH donors on DOX activity in three representative cancer cell lines: triple-negative breast cancer MDA-MB-468, ER-positive breast cancer MCF-7, and hepatocellular carcinoma HepG2.\n(§2) Figure 5. Effect of RSSH donors on anticancer activity of DOX in cancer cells. MDA-MB-468, MCF-7, and HepG2 cells were pretreated with APT-1 or its mitochondria-targeted analog APT-1-TPP for 4 h, followed by co-treatment with DOX (5 μM for MDA-MB-468 and HepG2; 15 μM for MCF-7) for an additional 24 h. Results are presented as mean ± SEM, n = 3; *p < 0.05, **p < 0.01, ***p < 0.001, ****p < 0.0001. Ctl = vehicle-treated group (0.01% DMSO in medium). […]\n(§3) Cytoprotective Effects of RSSH Donors against Doxorubicin Toxicity\n(§4) Cytoprotective studies were performed as previously described.[8] Briefly, H9c2 cells, HepG2 cells, MDA-MB-468 cells, and MCF-7 cells were seeded at a density of 7 x 10^3 cells/well. […] Additionally, in the vehicle control group, cells were treated with medium (DMEM with 10% FBS) containing 0.01% DMSO only. The cells were then further incubated for an additional 4 h before being treated with DOX (10 μL/well, with final concentration of 5 μM). After a 24 h co-incubation with DOX, each well was carefully washed three times with PBS (pH 7.4) and 100 μL o f F B S-free medium containing 10% v/v CCK-8 (Dojindo) was added. The plates were then incubated for 1-2 h before measuring absorbance at […]\n(§5) The relative % cell viability was calculated as 100 times the ratio of Abs450 (RSSH donor + DOX-exposed) to Abs450 (vehicle, non-DOX-exposed). Each treatment condition was performed in 6 technical replicates per biological replicate, and the experiment was independently repeated three times (n = 3 biological replicates). Data are presented as mean ± SEM. […]"}, "MDA-MB-468 cells": {"system": "MDA-MB-468 cells", "assay": "Effect of RSSH donors on anticancer activity of DOX, CCK-8", "details": "4 h pretreatment, then 24 h co-treatment with DOX 5 μM", "protocol": "as §1, §2, §3, §4, §5"}, "HepG2 cells [1]": {"system": "HepG2 cells", "assay": "Effect of RSSH donors on anticancer activity of DOX, CCK-8", "details": "4 h pretreatment, then 24 h co-treatment with DOX 5 μM", "protocol": "as §1, §2, §3, §4, §5"}, "HepG2 cells [2]": {"system": "HepG2 cells", "assay": "Cytotoxicity of RSSH donors, CCK-8 assay", "details": "up to 200 μM, 24 h", "protocol": "as §1\nFigure S22. Measurement of Cys-SH and GSH in cytoplasm (A, B) and mitochondria (C, D) of H9c2 cells treated with APT-1 (200 µM) APT-1-TPP (200 µM), or vehicle (0.01% DMSO in serum-free medium) for 2 h. Data are mean ± SEM (n = 3); *p ≤ 0.05, **p ≤ 0.01.\nCytotoxicity Assessment of Hydropersulfide Precursors in H9c2 and HepG2 cells Cell viability was measured using the Cell Counting Kit-8 (CCK-8, Dojindo).[7] […] The plates were then incubated for 1-2 h before measuring absorbance at 450 nm using a plate reader […]\ncalculated as: % Viability = 100 × [Abs₄₅₀ (treated cells) / Abs₄₅₀ (vehicle control)]. […]\nFigure S23. […] Results are expressed as mean ± SEM, n≥3; *P<0.05, **P<0.01, ***P<0.001, ****P<0.0001. […]\nCytoprotective studies were performed as previously described.[8] […] The plates were then incubated for 1-2 h before measuring absorbance at […]\nThe relative % cell viability was calculated as 100 times the ratio of Abs450 (RSSH donor + DOX-exposed) to Abs450 (vehicle, non-DOX-exposed). […]\nBasal sulfane sulfur levels were quantified using the fluorescent probe Sulfobiotics SSP4 (Dojindo, SB10) as previously described.[5] […]"}}}
{"compound": "CC(=O)NC(C(=O)N(C)CCC[P+](c1ccccc1)(c1ccccc1)c1ccccc1)C(C)(C)SSC(=O)N(C)CCOC(C)=O", "note": "(stereo not drawn) [APT-1-TPP]", "values": [{"measurement": "effect on DOX cytotoxicity", "setting": "MCF-7 cells", "result": "synergistically enhanced its activity"}, {"measurement": "concentration that modestly enhanced DOX's anticancer activity", "setting": "MDA-MB-468 cells", "result": "≥ 100", "unit": "µM"}, {"measurement": "effect on DOX cytotoxicity", "setting": "MDA-MB-468 cells", "result": "no protective effect"}, {"measurement": "effect on DOX cytotoxicity", "setting": "HepG2 cells [1]", "result": "potentiated DOX cytotoxicity in a dose-dependent manner"}, {"measurement": "cytotoxicity of donor alone", "setting": "HepG2 cells [2]", "result": "non-toxic"}]}
{"compound": "COC(=O)C(NC(C)=O)C(C)(C)SSC(=O)N(C)CCOC(C)=O", "note": "(stereo not drawn) [APT-1]", "values": [{"measurement": "effect on DOX cytotoxicity", "setting": "MCF-7 cells", "result": "did not blunt DOX cytotoxicity"}, {"measurement": "effect on DOX cytotoxicity", "setting": "MDA-MB-468 cells", "result": "did not provide cytoprotection"}, {"measurement": "effect on DOX cytotoxicity", "setting": "HepG2 cells [1]", "result": "no protective effect"}, {"measurement": "cytotoxicity of donor alone", "setting": "HepG2 cells [2]", "result": "non-toxic"}]}
